One assay has as its system soleus muscles. Briefly: Measurement of force in an in vitro model: isolated rat nerve-muscle preparation with tubocurarine. The following applies: Rattus norvegicus, 40 min; percentage of initial force restored after 40 mins with 50 µM test compound; tubocurarine (115 nM) for 90 mins; read-out: Point increase. On the procedure:
Recovery of force is quantified as the percentage of the force prior to tubocurarine that is recovered by the compound.
The current invention relates to compounds that inhibit CIC-1 ion channels and increase muscle excitability and thereby improve muscle function in clinical conditions where muscle activation is failing. Such conditions result in loss of contractile function of skeletal muscle, weakness and excessive fatigue. In this series of experiments the compounds were tested for their ability to restore contractile function of isolated rat muscle when the neuromuscular transmission had been compromised akin to neuromuscular disorders.
Experimentally, soleus muscles from 4-5 wk old rats were isolated with the motor nerve remaining attached. The nerve-muscle preparations were mounted in experimental setups that enabled electrical stimulation of the motor nerve. Stimulation of the motor nerve led to activation of the muscle fibres and ensuing force production that was recorded.
After mounting the nerve-muscle preparation in the experimental setup, the contractile function of the muscle was initially assessed under the control conditions (Figure 2A). […] The experimental condition mimics the failing neuromuscular transmission in a range of neuromuscular disorders. After addition of tubocurarine the contractile force declined over the next 90 mins to 10-50 % of the control force. 50 µM of the test compound was then added and the contractile force recovered despite the continued presence of tubocurarine. To quantify the ability of the compound to restore force the percentage of the initial force that was restored was determined after 40 mins of compound exposure (Figure 2B) and the point increase is reported in Table 3. Table 3: Percentage increase of initial force that was restored using compounds of the invention

A further assay deals with T1, human CIC-1 channels (Homo sapiens, UniProt P35523).
T1 construct: host or cells: CHO cells constitutively expressing human ClC-1
T1 sequence (P35523 whole entry): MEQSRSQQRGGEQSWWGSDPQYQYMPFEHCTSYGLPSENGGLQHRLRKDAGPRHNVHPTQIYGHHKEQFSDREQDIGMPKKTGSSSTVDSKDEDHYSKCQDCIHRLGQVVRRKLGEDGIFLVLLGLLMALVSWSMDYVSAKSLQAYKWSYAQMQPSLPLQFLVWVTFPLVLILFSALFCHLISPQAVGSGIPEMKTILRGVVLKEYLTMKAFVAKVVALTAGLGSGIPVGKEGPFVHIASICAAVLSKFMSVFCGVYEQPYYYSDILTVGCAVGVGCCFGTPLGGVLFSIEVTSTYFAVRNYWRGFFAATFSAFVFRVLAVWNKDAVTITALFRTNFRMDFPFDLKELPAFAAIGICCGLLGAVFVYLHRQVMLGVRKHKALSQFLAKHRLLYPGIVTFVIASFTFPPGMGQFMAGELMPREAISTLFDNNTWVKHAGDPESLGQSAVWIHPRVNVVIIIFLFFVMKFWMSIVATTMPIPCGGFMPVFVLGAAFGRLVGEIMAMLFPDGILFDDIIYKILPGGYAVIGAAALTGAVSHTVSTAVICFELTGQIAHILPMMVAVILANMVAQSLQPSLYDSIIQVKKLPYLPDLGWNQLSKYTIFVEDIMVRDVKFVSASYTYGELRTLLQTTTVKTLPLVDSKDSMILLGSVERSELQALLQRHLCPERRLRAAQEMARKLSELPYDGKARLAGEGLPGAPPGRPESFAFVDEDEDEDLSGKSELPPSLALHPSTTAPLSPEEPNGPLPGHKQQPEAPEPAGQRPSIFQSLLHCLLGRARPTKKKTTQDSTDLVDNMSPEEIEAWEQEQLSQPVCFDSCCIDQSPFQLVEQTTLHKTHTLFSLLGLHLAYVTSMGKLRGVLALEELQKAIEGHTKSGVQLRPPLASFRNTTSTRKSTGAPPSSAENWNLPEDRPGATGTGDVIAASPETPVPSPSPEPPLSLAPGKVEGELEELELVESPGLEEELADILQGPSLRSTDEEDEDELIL
Briefly: Automated patch-clamp on human CIC-1 expressed in CHO cells. It is filed as cell-based. The following applies: difference in half activation voltage, compound added intracellularly vs control cell patches; positive shift = CIC-1 inhibition. On the procedure:
The investigatory goal of these experiments was to evaluate how compounds affect the open probability and current amplitude of human CIC-1 channels expressed in CHO cells. Experiments were performed using an automated patch clamp system that allowed high throughput testing of whole cell patches together with both intracellular and extracellular addition of compound.
Automated whole cell patch clamp experiments were performed with the Qpatch 16 system (Sophion Bioscience, Ballerup, Denmark) at room temperature. Data acquisition and analysis were performed in the Qassay software (ver. 5.6, Odense).
To evoke CIC-1 currents in whole cell patches, the membrane potential was initially stepped from a holding potential of -30 mV to +60 mV for 100 ms and then to various test voltages (sweeps) ranging from +120 mV to -140 mV in steps of 20 mV for 300 ms. To obtain tail currents, the membrane potential was stepped to -100 mV after each test voltage for 300 ms and then relaxed to -30 mV for 2 sec between sweeps (Figure 3). I/V relationships for whole cell instant and steady state current amplitudes were obtained by plotting average current densities at the beginning and at the end of the 300 ms step against the membrane potential (Figure 4).
In order to determine the relative overall open probability (P0), the instantaneous tail currents were normalized to the maximal tail current obtained following the most positive voltage step and plotted against the test voltage. Plots of normalized tail currents from each whole cell patch were then fitted to a Boltzmann function allowing determination of half activation voltages (V1/2, Figure 5).
For automated patch clamp experiments extracellular solutions contained: 2 mM CaCl2, 1 mM MgCl2, 10 mM HEPES, 4 mM KCI, 145 mM NaCl, 10 mM Glucose, pH adjusted to 7.4 with NaOH (2 M). Osmolality adjusted to -320 using sucrose.
Intracellular solutions contained: 80 mM CsF, 60 mM CsCI, 5/1 mM KOH/EGTA, 10 mM HEPES, 10 mM NaCl, pH adjusted to 7.2 with NaOH (2 M). Osmolality adjusted to -320 mOsm using sucrose.
Cells used in patch clamp experiments were Chinese hamster ovary cells (CHO) constitutively expressing human CIC-1 channels. The amino acid sequence encoded by the cDNA used to create this cell line was identical to the translated sequence for GenBank accession number NM_000083.2. Cells were produced by Charles River (Catalogue CT6175, Cleveland OH, USA) in a cryopreserved format. Experiments were performed on the cells directly after thawing (3 × 10^6 cells used in each experiment).
To evaluate the compound effect on CIC-1, when applied directly to the intracellular side of the cell membrane, the half activation voltage, V1/2, was determined from whole cell patches with compound added to the intracellular solution and then compared to V1/2 determined from control cell patches with only vehicle added to the intracellular solution. Additionally, the effect of extracellular added compound was evaluated by determine V1/2 and steady state current amplitudes before and after exchanging the extracellular solution to contain compound.
The difference in half activation voltage of CIC-1 channels, ΔV1/2, was determined as the difference between the cell patches treated intracellularly with compound and control cells patches and is reported in Table 4 below. A positive shift in ΔV1/2 is reflecting CIC-1 channel inhibition by the tested compound. P-values of <0.05 is considered significant. […]
(In patch-clamp work, channel activity is measured electrically.)

This passage reports activation and ΔV1/2 results from patent EP3723745B1, “PHENOXY ACIDS FOR THE TREATMENT OF NEUROMUSCULAR DISORDERS” (NMD Pharma A/S, priority 2017, dated 2019).

SMILES strings stand for the structures.

In the case of `CC(C)[C@H](Oc1ccc(Br)cc1F)C(=O)O` [Compound A-27, (2S)-2-(4-bromo-2-fluorophenoxy)-3-methylbutanoic acid], in the assay with soleus muscles, the activation at 50 µM amounted to 46%. For the same compound, the ΔV1/2 at human CIC-1 channels came out at 20.2 mV.
The corresponding values for `[2H][C@@](CC)(Oc1ccc(Br)cc1)C(=O)O` [Compound A-60, (2S)-2-(4-bromophenoxy)(2-^2H)butanoic acid] are 62% and 20.0 mV.
The corresponding values for `O=C(O)[C@H](CCF)Oc1ccc(Br)cc1` [Compound A-87, (2S)-2-(4-bromophenoxy)-4-fluorobutanoic acid] are 37% and 16.4 mV.
